Test results reported in ChEMBL document CHEMBL2057184, “Essential structure of opioid κ receptor agonist nalfurafine for binding to the κ receptor 2: synthesis of decahydro(iminoethano)phenanthrene derivatives and their pharmacologies” (Bioorg Med Chem Lett, 2012).

Legend:
[1] = molecular target: Mu-type opioid receptor (Mus musculus, UniProt P42866); experiment: Displacement of [3H]DAMGO from mu opioid receptor in mouse cerebellum
[2] = molecular target: Kappa-type opioid receptor (Cavia porcellus, UniProt P41144); experiment: Displacement of [3H]U-69,593 from kappa opioid receptor in guinea pig cerebellum
[3] = Selectivity ratio of Ki for delta opioid receptor in mouse cerebellum to Ki for kappa opioid receptor in guinea pig cerebellum; type: tissue-based
[4] = molecular target: Delta-type opioid receptor (Mus musculus, UniProt P32300); experiment: Displacement of [3H]DPDPE from delta opioid receptor in mouse cerebellum
[5] = Selectivity ratio of Ki for mu opioid receptor in mouse cerebellum to Ki for kappa opioid receptor in guinea pig cerebellum; type: tissue-based

Sequence of Mu-type opioid receptor (P42866 whole entry): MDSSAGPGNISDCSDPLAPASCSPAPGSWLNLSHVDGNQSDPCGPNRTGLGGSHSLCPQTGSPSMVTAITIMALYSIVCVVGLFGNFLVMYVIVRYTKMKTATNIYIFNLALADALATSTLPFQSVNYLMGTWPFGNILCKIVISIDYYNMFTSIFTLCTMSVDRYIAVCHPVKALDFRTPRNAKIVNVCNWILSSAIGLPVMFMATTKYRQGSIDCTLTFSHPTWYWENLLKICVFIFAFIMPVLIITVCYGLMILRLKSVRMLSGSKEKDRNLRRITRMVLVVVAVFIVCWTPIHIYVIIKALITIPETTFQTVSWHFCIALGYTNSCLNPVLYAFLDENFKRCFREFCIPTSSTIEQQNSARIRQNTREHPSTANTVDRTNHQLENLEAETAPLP
Sequence of Delta-type opioid receptor (P32300 whole entry): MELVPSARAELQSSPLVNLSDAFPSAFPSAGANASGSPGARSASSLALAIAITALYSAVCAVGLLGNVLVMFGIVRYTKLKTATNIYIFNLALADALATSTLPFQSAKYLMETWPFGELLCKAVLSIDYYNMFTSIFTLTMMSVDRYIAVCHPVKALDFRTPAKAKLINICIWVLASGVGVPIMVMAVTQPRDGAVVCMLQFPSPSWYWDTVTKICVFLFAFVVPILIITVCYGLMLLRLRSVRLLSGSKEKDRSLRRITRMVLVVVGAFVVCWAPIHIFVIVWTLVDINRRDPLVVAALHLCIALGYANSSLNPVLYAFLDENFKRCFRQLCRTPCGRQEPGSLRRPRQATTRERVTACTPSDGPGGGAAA
Sequence of Kappa-type opioid receptor (P41144 whole entry): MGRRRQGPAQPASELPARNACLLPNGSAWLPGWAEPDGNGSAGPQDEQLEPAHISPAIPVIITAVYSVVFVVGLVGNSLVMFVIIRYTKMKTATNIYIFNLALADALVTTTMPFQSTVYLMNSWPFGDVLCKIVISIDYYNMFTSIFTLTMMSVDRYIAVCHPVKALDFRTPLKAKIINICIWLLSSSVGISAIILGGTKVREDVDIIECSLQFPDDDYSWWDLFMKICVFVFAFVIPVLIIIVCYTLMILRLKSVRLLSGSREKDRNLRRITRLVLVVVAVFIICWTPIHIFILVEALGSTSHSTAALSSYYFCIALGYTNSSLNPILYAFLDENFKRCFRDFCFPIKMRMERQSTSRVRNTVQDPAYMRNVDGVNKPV

Compound | Ki [1] [nM] | Ki [2] [nM] | Ratio Ki [3] | Ki [4] [nM] | Ratio Ki [5]
O=C1CC[C@@]2(O)[C@H]3CC4=C(CCCC4)[C@@]2(CCN3CC2CC2)C1 | 391 | 787 | 1.19 | 939 | 0.5
CN(C(=O)/C=C/c1ccoc1)[C@@H]1CC[C@@]2(O)[C@H]3Cc4cccc5c4[C@@]2(CCN3CC2CC2)[C@H]1O5 | 169 | 2.82 | – | > 1000 | 59.8
CN(C(=O)/C=C/c1ccoc1)[C@@H]1CC[C@H]2[C@H]3Cc4ccc(O)c5c4[C@@]2(CCN3CC2CC2)[C@H]1O5 | 0.51 | 0.35 | 25.3 | 8.82 | 1.47
CN[C@@H]1CC[C@@]2(O)[C@H]3CC4=C(CCCC4)[C@@]2(CCN3CC2CC2)C1 | > 1000 | 352 | – | > 1000 | –
CN(C(=O)/C=C/c1ccoc1)[C@@H]1CC[C@H]2[C@H]3CC4=C(CCCC4)[C@@]2(CCN3CC2CC2)C1 | 24.6 | 12.7 | 16.1 | 204 | 1.94
CN(C(=O)/C=C/c1ccoc1)[C@@H]1CC[C@@]2(O)[C@H]3CC4=C(CCCC4)[C@@]2(CCN3CC2CC2)C1 | 83.2 | 5.64 | 54.5 | 308 | 14.7
CN(C(=O)/C=C/c1ccoc1)[C@@H]1CC[C@@]2(O)[C@H]3Cc4ccc(O)cc4[C@@]2(CCN3CC2CC2)C1 | 0.43 | 0.18 | 11.8 | 2.09 | 2.42
CN(C(=O)/C=C/c1ccoc1)[C@@H]1CC[C@H]2CN(CC3CC3)CC[C@@H]2C1 | > 100000 | 19100 | – | > 100000 | –
